This note sets out measurements from US4968819A, “Process for the preparation of chromene derivatives” (Alkaloida Vegyeszeti Gyar, priority 1983, dated 1990).

Where two headings read alike, the source gives them in different places.

Holding throughout (assay type): in vivo
The test system of assay [1] is tomato root gall nematode (Meloidogyne incognita). Briefly: Tomato root gall nematode test (II. stage infective larvae, treated NGM agar plate). As to conditions: 72 hours; for mortality at 200 µg/mL / mortality at 400 µg/mL: Meloidogyne incognita. The method, then: (6) Root gall nematode The test is carried out on II. stage infective larvae, which are collected from the root of tomato plant, placed on a filter and incubated in sterile water at 25° C. The hatched larvae are collected every 24 hours and immediately placed onto the treated nutrient medium. As nutrient medium NGM agar plate free from bacterial is used. 0.5 ml of the acetoneous solution of the test compound is applied onto the surface of the plate in a Petri-dish. After the acetone has evaporated 5 μl of the larva suspension is applied onto each plate. After 72 hours the surviving and killed insects are counted.

A further assay relates to Caenorhabditis elegans. Briefly: Caenorhabditis elegans test (treated NGM agar plate, young adults). The method, then:
(5) Caenorhabditis elegans 0.5 ml of the acetonous solution of the test compound is applied onto a NGM agar plate free from bacteria in a Petri dish. After the acetone has dried 25-30 young adults are placed on the plate. After 24 hours the surviving and killed insects are counted.

The subject of assay [2] is domestic fly (Musca domestica). Briefly: Domestic fly test (larvae in treated nutrient medium). The following applies: 0.1% related to milk, 0.05% related to total nutrient medium. The method, then: The fly larvae are grown on a nutrient medium of the following composition: 2 ml of milk; 2 ml of water; 2 g of wheat bran; 0.1 ml of saturated alcoholic nipagin solution.
The nutrient medium is filled into cylindrical glass vials (30×100 mm) and 25 fly larvae are raised in each vial. The test compound is dissolved in milk; the end concentration (related to milk) amounts to 0.1% which corresponds to 0.05% (related to the total nutrient medium). The solution of the active ingredient is admixed with the nutrient medium whereupon […] of domestic fly larvae of the I. stage are placed into each vial and the vials are closed with a hard cotton-wool stopper. The nymphs emerging from the larvae are collected in each vial, counted and kept in a Petri dish (diameter 25 mm) until flies hatch from the nymphs. The hatched flies are counted.

Assay [3] relates to cabbage butterfly (Pieris brassicae). Briefly: Cabbage butterfly test (sprayed cabbage seedlings). The following applies: 50 EC. The method, then:
From the 50 EC of the test compound a diluted series is prepared with water and the host seedlings (cabbage) are sprayed with this composition until the spray runs down. The spray is allowed to dry whereupon 20 young larvae of the II. stage are placed on each treated plant and the seedlings are kept under so-called "long-day" illumination (18 hours of illumination and 6 hours of darkness). The nibbled plants are replaced by similarly sprayed plants if necessary. The killing rate of the insects, the growth rate of the larvae and the morphological deformations of the surviving nymphs and adults are registered.
In the 50 EC compositions the concentration of compounds 23 and 25 amounts to 0.01% and that of the other compounds to 0.1%.

[4] abbreviates: 200 μg/ml, first test, read-out: mortality 1.
Where [5] appears, read: 200 μg/ml, second test, read-out: mortality 2.
[6] abbreviates: 200 μg/ml, read-out: mortality Average.
Where [7] appears, read: 400 μg/ml, first test, read-out: mortality 1.
[8] abbreviates: 400 μg/ml, second test, read-out: mortality 2.
Where [9] appears, read: 400 μg/ml, read-out: mortality Average.
[10] abbreviates: Caenorhabditis elegans, 24 h, read-out: Lethality.
Setting [11] is: Pieris brassicae, 0.1%, read-out: Killing rate of larvae.

For the compound `C=CCOc1cc2c(cc1OCC=C)OC(C)(C)C=C2` [Compound 5], the Nematocidal effect result in assay [1] (400 μg/ml) is “medial”. Further, the figures for the mortality at 200 µg/mL in assay [1] (setting [4]), in assay [1] (setting [5]) and in assay [1] (setting [6]) were 18%, 29% and 23%, respectively. Further, the figures for the mortality at 400 µg/mL in assay [1] (setting [7]), in assay [1] (setting [8]) and in assay [1] (setting [9]) were 45%, 43% and 44%, respectively. Moreover, the “Size of descendant population” value is “some descendants” in the assay on Caenorhabditis elegans (200 μg/ml) and “no descendants” in the assay with Caenorhabditis elegans (400 μg/ml).

Turning to `C=CCOc1cc2c(cc1OC)C=CC(C)(C)O2` [Compound 7], the “Size of descendant population” value with Caenorhabditis elegans (200 μg/ml) is “no descendants”. In the assay with Caenorhabditis elegans (400 μg/ml), the “Size of descendant population” value is “no descendants”. Further, in the assay on Caenorhabditis elegans (setting [10]), the mortality at 200 µg/mL was 90% and the mortality at 400 µg/mL was found to be 90%.

In assay [2], `CCOc1cc2c(cc1OC)OC(C)(C)C=C2` [Compound 34] showed a Survival adult of 12.8% and a Survival nymph of 85%. Besides, in the assay on Caenorhabditis elegans (200 μg/ml), the Remarks entry is “paralysation” and the “Size of descendant population” value is listed as “reduced”. In the assay on Caenorhabditis elegans (400 μg/ml), the Remarks result was “paralysation” and the “Size of descendant population” value is given as “some descendants”. For the same compound, in the assay with Caenorhabditis elegans (setting [10]), the mortality at 200 µg/mL worked out at 15% and the mortality at 400 µg/mL worked out at 23%.

Turning to `C#CCOc1ccc2c(c1)OC(C)(C)C=C2` [Compound 37], in the assay on Caenorhabditis elegans (200 μg/ml), the Remarks result is listed as “paralysation” and the “Size of descendant population” value is on record as “no descendants”. In the assay with Caenorhabditis elegans (400 μg/ml), the Remarks entry is “paralysation” and the “Size of descendant population” value is “no descendants”. Moreover, in the assay on Caenorhabditis elegans (setting [10]), the mortality at 200 µg/mL is 100% and the mortality at 400 µg/mL is 100%.

In assay [3] (0.1%), `CCOc1cc(C)c2c(c1)OC(C)(C)C=C2` [Compound 38] registered a Survival adult of 19% and a Survival nymph of 19%. For the same compound, in assay [3] (setting [11]), the pest or weed control at 0.1 % was found to be 81%. In assay [2], this compound had a Survival adult of 14.8% and a Survival nymph of 40%.

For `C#CCOc1cc(C)c2c(c1)OC(C)(C)C=C2` [Compound 44], in assay [3] (0.1%), the Survival adult is reported as 17% and the Survival nymph was 17%. The pest or weed control at 0.1 % in assay [3] (setting [11]) was 83%. For the same compound, in assay [2], the Survival adult was 10.6% and the Survival nymph amounted to 50.9%. In the assay with Caenorhabditis elegans (200 μg/ml), the Remarks entry is recorded as “paralysation” and the “Size of descendant population” value is recorded as “some descendants”. In addition, in the assay on Caenorhabditis elegans (400 μg/ml), the Remarks result was “paralysation” and the “Size of descendant population” value is “no descendants”.

In assay [3] (0.1%), `COc1c(OCC(C)C)ccc2c1OC(C)(C)C=C2` [Compound 54] yielded a Survival adult of 7% and a Survival nymph of 7%. In addition, the pest or weed control at 0.1 % in assay [3] (setting [11]) came out at 93%.

In the case of `CCOc1cc2c(cc1OCC)OC(C)(C)C=C2` [Compound 2], the Nematocidal effect entry in assay [1] (200 μg/ml) and in assay [1] (400 μg/ml) was “strong” in each case. The mortality at 200 µg/mL in assay [1] (setting [4]) worked out at 74%; in assay [1] (setting [5]), 69%; in assay [1] (setting [6]), 72%. For the same compound, the mortality at 400 µg/mL in assay [1] (setting [7]) came out at 83%; in assay [1] (setting [8]), 90%; in assay [1] (setting [9]), 87%.

Take `CCC(C)Oc1ccc2c(c1)OC(C)(C)C=C2` (stereo not drawn) [Compound 28]: in assay [2], the Survival adult was 25.6% and the Survival nymph worked out at 115%.

For the compound `CCCCOc1cc2c(cc1OCCCC)OC(C)(C)C=C2` [Compound 14], in the assay with Caenorhabditis elegans (200 μg/ml), the “Size of descendant population” value is listed as “reduced”. For the same compound, in the assay on Caenorhabditis elegans (400 μg/ml), the “Size of descendant population” value is “reduced”. Moreover, in the assay with Caenorhabditis elegans (setting [10]), the mortality at 200 µg/mL turned out to be 30% and the mortality at 400 µg/mL came to 80%.

In assay [3] (0.01%), `CCCOc1ccc2c(c1)OC(C)(C)C=C2` [Compound 25] came in with a Survival adult of 39% and a Survival nymph of 48%. Further, in assay [3] (Pieris brassicae, 0.01%, read-out: Killing rate of larvae), the pest or weed control at 0.01 % was determined as 52%.

For the compound `COc1cc(OCC(C)C)cc2c1C=CC(C)(C)O2` [Compound 49], the pest or weed control at 0.1 % in assay [3] (setting [11]) was 100%. In assay [2], this compound displayed a Survival adult of 0% and a Survival nymph of 0%.

On to `CC(C)COc1ccc2c(c1)OC(C)(C)C=C2` [Compound 29], for which, in assay [2], the Survival adult worked out at 28.2% and the Survival nymph amounted to 100%.

In assay [3] (0.1%), `CCC(C)Oc1cc(C)c2c(c1)OC(C)(C)C=C2` (stereo not drawn) [Compound 41] gave a Survival adult of 14% and a Survival nymph of 19%. For the same compound, in assay [3] (setting [11]), the pest or weed control at 0.1 % was found to be 11%. In assay [2], this compound yielded a Survival adult of 12.5% and a Survival nymph of 25.4%.

As for `Cc1cc(OC(C)C)cc2c1C=CC(C)(C)O2` [Compound 40], in assay [2], the Survival adult amounted to 27.6% and the Survival nymph was determined as 50.9%.

In assay [3] (0.1%), `COc1cc(OC(C)C)cc2c1C=CC(C)(C)O2` [Compound 47] came in with a Survival adult of 9% and a Survival nymph of 13%. The pest or weed control at 0.1 % in assay [3] (setting [11]) was 87%.

For the compound `COc1c(OC(C)C)ccc2c1OC(C)(C)C=C2` [Compound 52], the Survival adult in assay [3] (0.1%) is reported as 32%; in assay [2], 0%. In addition, the Survival nymph in assay [3] (0.1%) came to 36%; in assay [2], 12%. The pest or weed control at 0.1 % in assay [3] (setting [11]) stood at 64%. Further, the “Size of descendant population” value in the assay with Caenorhabditis elegans (200 μg/ml) and in the assay with Caenorhabditis elegans (400 μg/ml) was “reduced” in each case.

Consider `CCC(C)Oc1cc(OC)c2c(c1)OC(C)(C)C=C2` (stereo not drawn) [Compound 48, 5-methoxy-7-sec. butoxy-2,2-dimethyl-2H-chromene], for which the pest or weed control at 0.1 % in assay [3] (setting [11]) turned out to be 100%.

For the compound `Cc1cc(OC2CCCC2)cc2c1C=CC(C)(C)O2` [Compound 43], the pest or weed control at 0.1 % in assay [3] (setting [11]) stood at 100%. Further, in assay [2], the Survival adult is listed as 31.8% and the Survival nymph was found to be 52.7%.

Regarding `CC1(C)C=Cc2cc3c(cc2O1)OCO3` [Compound 4], the Nematocidal effect entry in assay [1] (200 μg/ml) and in assay [1] (400 μg/ml) was “strong” in each case. The mortality at 200 µg/mL in assay [1] (setting [4]) amounted to 84%; in assay [1] (setting [5]) it was 69%; in assay [1] (setting [6]), 77%; with Caenorhabditis elegans (setting [10]), 100%. Besides, the mortality at 400 µg/mL in assay [1] (setting [7]) came out at 96%; in assay [1] (setting [8]), 92%; in assay [1] (setting [9]) it was 94%; in the assay on Caenorhabditis elegans (setting [10]) it was 100%. Moreover, the “Size of descendant population” value in the assay with Caenorhabditis elegans (100 μg/ml), in the assay on Caenorhabditis elegans (200 μg/ml) and in the assay with Caenorhabditis elegans (400 μg/ml) was “no descendants” throughout. In the assay with Caenorhabditis elegans (setting [10]), the mortality at 100 µg/mL was determined as 100%.

Regarding `CCCOc1cc(OC)c2c(c1)OC(C)(C)C=C2` [Compound 46], the Survival adult in assay [3] (0.1%) was 12%; in assay [2], 6.4%. Also, the figures for the Survival nymph in assay [3] (0.1%) and in assay [2] were 12% and 9.1%, respectively. The pest or weed control at 0.1 % in assay [3] (setting [11]) came to 88%.

For `COc1ccc2c(c1OC)OC(C)(C)C=C2` [Compound 35], in assay [2], the Survival adult was found to be 0% and the Survival nymph amounted to 12%. Also, in the assay on Caenorhabditis elegans (200 μg/ml), the Remarks entry is “paralysation” and the “Size of descendant population” value is “reduced”. Besides, in the assay on Caenorhabditis elegans (400 μg/ml), the Remarks result was “paralysation” and the “Size of descendant population” value was “no descendants”. For the same compound, in the assay on Caenorhabditis elegans (setting [10]), the mortality at 200 µg/mL was 67% and the mortality at 400 µg/mL came to 100%.

Turning to `CCC(C)Oc1ccc2c(c1OC)OC(C)(C)C=C2` (stereo not drawn) [Compound 53, 7sec. butoxy-8-methoxy-2,2-dimethyl-2chromene], the pest or weed control at 0.1 % in assay [3] (setting [11]) turned out to be 100%. For the same compound, the “Size of descendant population” value in the assay with Caenorhabditis elegans (200 μg/ml) and with Caenorhabditis elegans (400 μg/ml) was “reduced” in each case.
